Counter-ions that a name gives are not always drawn. The source made the active and inactive calls. No cut-off for these calls is given here.

This note sets out measurements from ChEMBL document CHEMBL4392887, “17- nor-Cephalotane-Type Diterpenoids from Cephalotaxus fortunei” (J Nat Prod, 2019).

Experiment [1] deals with A549. Nature of the experiment: Cytotoxicity in human A549 cells assessed as inhibition of cell viability at 50 uM incubated for 72 hrs by CCK-8 assay. In kind it is functional. To be noted: A549, 72 h. Background: Formazan colour is commonly taken as a measure of viable cells.
For experiment [2], the system named is HL-60. The experiment in a line: Cytotoxicity in human HL60 cells assessed as inhibition of cell viability at 50 uM incubated for 72 hrs by CCK-8 assay. The format is functional. To be noted: HL-60, 72 h.
Experiment [3] concerns HL-60. The experiment in a line: Cytotoxicity in human HL60 cells assessed as inhibition of cell viability incubated for 72 hrs by CCK-8 assay. In kind it is functional, cell-based. To be noted: for IC50: HL-60, 72 h.
The subject of experiment [4] is A549. Nature of the experiment: Cytotoxicity in human A549 cells assessed as inhibition of cell viability incubated for 72 hrs by CCK-8 assay. The format is functional, cell-based. Particulars: for IC50: A549, 72 h.

As a reminder, the inhibition is the change of the read-out against control, counted positive when it falls. On to `CC1=C[C@@H](O)[C@H](O)[C@@]2(O)CC[C@]34C(=O)O[C@@H]5C(O[C@H]6C1=C2[C@@H]3[C@@H]56)C4C` (stereo not given in full), for which the inhibition at 50 µM in the experiment on A549 [1] and with HL-60 [2] was below 50% throughout.

Broadly, the IC50 is the midpoint of a concentration-inhibition curve. Consider `Cc1cc(=O)cc2c3c1[C@@H]1OC4C(C)[C@@]5(C[C@H]2O)C(=O)O[C@H]4[C@]1(O)[C@@H]35` (stereo not given in full), for which the IC50 with HL-60 [3] is 17.2 µM; in the experiment with A549 [4], 11.5 µM.

`COc1cccc2c1C(=O)c1c(O)c3c(c(O)c1C2=O)C[C@@](O)(C(=O)CO)C[C@@H]3O[C@H]1C[C@H](N)[C@H](O)[C@H](C)O1` [DOXORUBICIN HYDROCHLORIDE]: the IC50 with HL-60 [3] came to 0.075 µM; with A549 [4] it was 0.44 µM.

For `CC1C[C@H]2OC(=O)[C@]13CC[C@@H]1CC(=O)C[C@H](C)C4=C1[C@]3(O)[C@@H]2C4=O` (stereo not given in full), the inhibition at 50 µM with A549 [1] and in the experiment with HL-60 [2] was below 50% each time.

For the molecule `Cc1cc(=O)cc2c3c1C[C@]1(O)[C@H]4CC(C)[C@@](CC2)(C(=O)O4)[C@]31O` (stereo not given in full), the values for the IC50 in the experiment with HL-60 [3] and in the experiment on A549 [4] were 6.8 µM and 4.5 µM, respectively.

For the molecule `CC1C(O)[C@H]2OC(=O)[C@]13CC[C@@H]1C[C@@H](O)C[C@H](C)C4=C1[C@]3(O)[C@@H]2C4=O` (stereo not given in full), the inhibition at 50 µM in the experiment with A549 [1] and in the experiment with HL-60 [2] was below 50% each time.

As for `Cc1cc(=O)cc2c3c1[C@@H](O)[C@H]1[C@@H]3[C@]3(CC2)C(=O)O[C@@H]1CC3C` (stereo not given in full), the IC50 with HL-60 [3] was above 50 µM; in the experiment with A549 [4], 10.3 µM.

Regarding `CC1C[C@H]2OC(=O)[C@]13CC[C@@H]1C[C@@H](O)C[C@H](C)C4=C1[C@@H]3[C@@H]2C4=O` (stereo not given in full), the inhibition at 50 µM in the experiment on A549 [1] and with HL-60 [2] was below 50% throughout.

For `CC1C[C@H]2OC(=O)[C@]13CC[C@@H]1C[C@H](O)C[C@H](C)C4=C1[C@@H]3[C@@H]2C4=O` (stereo not given in full), the inhibition at 50 µM with A549 [1] and in the experiment on HL-60 [2] was below 50% throughout.

`CO[C@@]12c3c4cc(=O)cc(C)c3C[C@@H]1[C@H]1CC(C)[C@@]2(CC4)C(=O)O1` (stereo not given in full): the inhibition result in the experiment with HL-60 [3] and in the experiment on A549 [4] was “inactive” each time.

For the molecule `Cc1cc(=O)cc2c3c1[C@@H](O)[C@@H]1[C@H]4CC(C)[C@@](C=C2)(C(=O)O4)[C@]31O` (stereo not given in full), the inhibition result with HL-60 [3] and in the experiment with A549 [4] was “inactive” in each case.

Regarding `Cc1cc(=O)cc2c3c1C[C@@H]1[C@H]4CC(C)[C@@](CC2)(C(=O)O4)[C@]31O` (stereo not given in full), the inhibition entry in the experiment on HL-60 [3] was “inactive”. For the same molecule, the inhibition result with A549 [4] is “Active”.

In the case of `CC1C[C@H]2OC(=O)[C@]13CC[C@@H]1CC(=O)C[C@H](C)C4=C1[C@@H]3[C@@H]2C4=O` (stereo not given in full), the inhibition at 50 µM with A549 [1] and in the experiment with HL-60 [2] was below 50% throughout.

For `Cc1cc(=O)cc2c3c1C[C@H]1[C@@H]3[C@]3(C[C@H]2O)C(=O)O[C@@H]1CC3C` (stereo not given in full), the IC50 in the experiment with HL-60 [3] is above 50 µM; in the experiment on A549 [4], 22 µM.

As for `Cc1cc(=O)cc2c3c1C[C@H]1[C@@H]3[C@]3(C=C2)C(=O)O[C@@H]1CC3C` (stereo not given in full), the IC50 in the experiment with HL-60 [3] was determined as 9.8 µM; in the experiment with A549 [4], 1 µM.

Consider `Cc1cc(=O)cc2c3c1C[C@@H]1[C@@H]4OC(=O)[C@](C[C@H]2O)(C(C)C4O)[C@H]31` (stereo not given in full), for which the results for the IC50 in the experiment with HL-60 [3] and with A549 [4] were 38.4 µM and 25.4 µM, respectively.

As to `Cc1cc(=O)cc2c3c1C[C@@H]1[C@H]4CC(C)[C@@](C=C2)(C(=O)O4)[C@]31O` (stereo not given in full), the figures for the 50% inhibitory concentration (IC50) in the experiment with HL-60 [3] and in the experiment on A549 [4] were 10 to 20 µM and 5.7 µM, respectively.

`Cc1cc(=O)cc2c3c1[C@H](O)[C@H]1[C@@H]3[C@]3(CC2)C(=O)O[C@@H]1CC3C` (stereo not given in full): the IC50 in the experiment with HL-60 [3] came out at 3.5 µM; in the experiment with A549 [4] it was 2.4 µM.

On to `Cc1cc(=O)cc2c3c1[C@H](O)[C@@H]1[C@@H]4OC(=O)[C@](CC2)(C(C)C4O)[C@H]31` (stereo not given in full), for which the IC50 with HL-60 [3] came out at 2.2 µM; in the experiment on A549 [4] it was 2.4 µM.

Turning to `CC1C(O)[C@H]2OC(=O)[C@]13CC[C@]14C[C@@H](O)[C@H](O1)[C@@](C)(O)C1=C4[C@@H]3[C@@H]2C1` (stereo not given in full), the inhibition at 50 µM in the experiment with A549 [1] and in the experiment on HL-60 [2] was below 50% throughout.
